Measurements: patent publication US8372869B2, “Process for the treatment of bacterial infections using 2-phenyl-1,2-benzisoselenazol-3(2H)-one 1-oxide” (priority 2008, dated 2013)
Entries after “also recorded” stand apart in the source; their conditions may differ.

How the values were obtained:
A-431 human skin cells = assay: MTT viability assay in human skin cells; format: cell-based; conditions: 12.5, 25 or 50 μM, 24 hr, 37° C., serum-free DMEM
Experimental: Cells were then incubated for 24 hr at 37° C. After incubation, the MTT viability assay was performed. This assay measures the conversion of 3-[4,5-dimethylthiazol-2-yl]-2,5-diphenyl tetrazolium bromide (MTT) into a colored product in living cells. The optical density of this purple formazan product in the cell culture medium was then measured spectrophotometrically at 570 nm and cell viability was determined as described by Mosmann (15).
The MTT assay was used to determine cell viability and the LC50 value for ebselen se-oxide in these cells was evaluated.

[1] = tested on: S. aureus strain ATCC 33592 (resistant to methicillin); assay: Broth microdilution susceptibility testing, methicillin-resistant S. aureus; format: cell-based, Staphylococcus aureus; conditions: strain ATCC 33592, Mueller Hinton Broth, 24 (±4) hr, 35-37° C., 3.125-25 μM tested
Text: (§1) A Gram-negative Escherichia coli strain, DH5(alpha), was purchased from Invitrogen (Cat #18265-017; Carlsbad, Calif.) and a Gram-positive Staphylococcus aureus strain, positive for catalase and coagulase, was purchased from Ward's Natural Science (Cat #85V1178; Rochester, N.Y.). S. aureus strain ATCC 33592 is a clinical isolate which is resistant to methicillin and which was obtained from the American Type Culture Collection (Manassas, Va.). S. aureus strain NARSA VRS 1 is a clinical isolate which is resistant to both methicillin and vancomycin and which was obtained from Focus Technologies, Inc. (Herndon, Va.). These bacterial strains were used to test the antibacterial activity of ebselen se-oxide. To prepare ebselen se-oxide, an adequate amount of said compound was dissolved in 0.5 mL of dimethylsulfoxide (DMSO) to give a 30.0 mM stock solution.
(§2) Note that all susceptibility assays were performed in triplicate wells using sterile flat-bottom 96-well microtiter plates. […] After 24 (±4) hr of incubation at 35-37° C., the MIC (minimum inhibitory concentration) for ebselen se-oxide was determined for each strain visually by comparing the turbidity of the triplicate treatments to that observed for drug-free growth control wells. […]

[2] = tested on: Staphylococcus aureus strain, positive for catalase and coagulase (Gram-positive); assay: Bacterial growth inhibition by light-scattering at 550 nm, Staphylococcus aureus; format: cell-based; conditions: read-out: IC50, concentration required to inhibit the growth of Staphylococcus aureus to 50% of the untreated control
Text: as §1
(§3) Luria Broth (LB) was used to for the culturing of both bacterial strains. […]
(§4) Bacterial growth, in the absence or presence of ebselen se-oxide, was assessed by light-scattering at 550 nm. In separate experiments, bacterial cells of either the Staphylococcus aureus or the Escherichia coli strain were inoculated into polypropylene tubes containing 5 mL of LB medium to obtain an initial optical density at 550 nm (OD550) of ˜0.005, as determined using a spectrophotometer (UV 160U, Shimadzu Corp., Kyoto, Japan). […]

[3] = tested on: Escherichia coli strain DH5(alpha) (Gram-negative); assay: Bacterial growth inhibition by light-scattering at 550 nm, Escherichia coli; format: cell-based; conditions: read-out: IC50 towards Escherichia coli cells (growth inhibition)
Text: as §1, §3, §4

[4] = tested on: S. aureus strain NARSA VRS1 (resistant to both methicillin and vancomycin); assay: Broth microdilution susceptibility testing, methicillin- and vancomycin-resistant S. aureus; format: cell-based, Staphylococcus aureus; conditions: strain NARSA VRS1, Mueller Hinton Broth, 24 (±4) hr, 35-37° C., 3.125-25 μM tested
Text: as §1, §2

SMILES: O=C1c2ccccc2[Se](=O)N1c1ccccc1 (stereo not drawn) [ebselen se-oxide, 2-phenyl-1,2-benzisoselenazol-3(2H)-one 1-oxide]
- Cytotoxic effect on viability of A-431 human skin cells (MTT) (A-431 human skin cells): neither compound was toxic; also recorded: no toxicity
- MIC (lowest concentration showing 100% growth inhibition in all three wells) [1]: low micromolar range
- IC50 [2]: ~0.6 µM
- IC50 [3]: ~17 µM
- MIC (lowest concentration showing 100% growth inhibition in all three wells) [4]: low micromolar range

SMILES: O=c1c2ccccc2[se]n1-c1ccccc1 [ebselen, 2-phenyl-1,2-benzoisoselenazol-3(2H)-one, reference compound]
- Cytotoxic effect on viability of A-431 human skin cells (MTT) (A-431 human skin cells): neither compound was toxic
